How the values were obtained:
bone mineral density = experiment: Osteoporosis model in ovariectomized rats, bone mineral density; type: in vivo, Sprague Dawley rats; settings: OVX rats treated orally daily for 35 days, in 20% hydroxypropyl β-cyclodextrin; femur x-ray image analysis and tibia quantitative computed tomography
Description: Seventy-five day old female Sprague Dawley rats (weight range of 200 g to 225 g) are obtained from Charles River Laboratories (Portage, Mich.). The animals are either bilaterally ovariectomized (OVX) or exposed to a Sham surgical procedure at Charles River Laboratories, and then shipped after one week. Upon arrival, they are housed in metal hanging cages in groups of 3 or 4 per cage and have ad libitum access to food (calcium content approximately 0.5%) and water for one week. Room temperature is maintained at 22.2°±1.70° C. with a minimum relative humidity of 40%. The photoperiod in the room is 12 hours light and 12 hours dark.
Following the General Procedure, infra, the rats are treated daily for 35 days (6 rats per treatment group) and sacrificed by carbon dioxide asphyxiation on the 36th day. The 35 day time period is sufficient to allow maximal reduction in bone density, measured as described herein. At the time of sacrifice, the uteri are removed, dissected free of extraneous tissue, and the fluid contents are expelled before determination of wet weight in order to confirm estrogen deficiency associated with complete ovariectomy. […]
The right femurs are excised and digitilized x-rays generated and analyzed by an image analysis program (NIH image) at the distal metaphysis. The proximal aspect of the tibiae from these animals are also scanned by quantitative computed tomography.

Row | SMILES | melting point | loss of bone mineral density (bone mineral density)
1 | COc1ccc(-c2cc3ccc(OC)cc3s2)cc1 [Example 1, 2-(4-Methoxyphenyl)-6-Methoxybenzo[b]thiophene] | 193 to 194 °C | 
2 | C#C[C@]1(O)CC[C@H]2[C@@H]3CCc4cc(O)ccc4[C@H]3CC[C@@]21C [ethynyl estradiol, 17-α-ethynyl estradiol] |  | a reduction in the loss of bone mineral density

Reference: patent publication US6395769B1, “2-arylbenzo[b]thiophenes useful for the treatment of estrogen deprivation syndrome” (Eli Lilly and Company, priority 1997, dated 2002)
